Experimental data: ChEMBL document CHEMBL1201862, “PubChem BioAssay data set” (2004)
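Five concentrations, 48 hours, 96-well plates. Here, GI50 denotes the concentration required for 50% inhibition of growth.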 Active and inactive are the calls of the source. Rule as the data show it: active = GI50 up to about 1.1 µM and inactive = higher.

Key:
Test in all cases: DTP human tumour cell line panel, 48 h
HOP-62 = test system: HOP-62
PC-3 = test system: PC-3
SK-MEL-2 = test system: SK-MEL-2
RPMI-8226 = test system: RPMI-8226
SK-OV-3 = test system: SK-OV-3
OVCAR-5 = test system: OVCAR-5
MDA-MB-435 = test system: MDA-MB-435
UACC-62 = test system: UACC-62
A549 = test system: A549
SK-MEL-28 = test system: SK-MEL-28
UACC-257 = test system: UACC-257
RXF 393 = test system: RXF 393
SF-268 = test system: SF-268
CAKI-1 = test system: CAKI-1
SN12C = test system: SN12C
UO-31 = test system: UO-31
HT-29 = test system: HT-29
IGROV-1 = test system: IGROV-1
OVCAR-8 = test system: OVCAR-8
NCI-H226 = test system: NCI-H226
COLO 205 = test system: COLO 205
SNB-19 = test system: SNB-19
SNB-75 = test system: SNB-75
KM12 = test system: KM12
SW-620 = test system: SW-620
HL-60 = test system: HL-60
Hs-578T = test system: Hs-578T
NCI-H23 = test system: NCI-H23
BT-549 = test system: BT-549
CCRF-CEM = test system: CCRF-CEM
TK-10 = test system: TK-10
DU-145 = test system: DU-145
HCT-116 = test system: HCT-116
U-251 = test system: U-251
SR = test system: SR
SF-295 = test system: SF-295
OVCAR-4 = test system: OVCAR-4
NCI-H522 = test system: NCI-H522
Malme-3M = test system: Malme-3M
SF-539 = test system: SF-539
NCI/ADR-RES = test system: NCI/ADR-RES
SK-MEL-5 = test system: SK-MEL-5
MCF7 = test system: MCF7
OVCAR-3 = test system: OVCAR-3
MDA-MB-231 = test system: MDA-MB-231
MOLT-4 = test system: MOLT-4
NCI-H460 = test system: NCI-H460
MDA-N = test system: MDA-N
HCC 2998 = test system: HCC 2998
EKVX = test system: EKVX
A498 = test system: A498
ACHN = test system: ACHN
HOP-92 = test system: HOP-92
M14 = test system: M14
HCT-15 = test system: HCT-15
LOX IMVI = test system: LOX IMVI
T47D = test system: T47D
786-0 = test system: 786-0
K562 = test system: K562

COC(=O)C1=C(C(=O)OC)C2OC1c1cc3ccccc3cc12
GI50 (HOP-62): 17.6 µM (inactive) | GI50 (PC-3): 15.2 µM (inactive) | GI50 (SK-MEL-2): 15.4 µM (inactive) | GI50 (RPMI-8226): 2.33 µM (inactive) | GI50 (SK-OV-3): 18.8 µM (inactive) | GI50 (OVCAR-5): 4.88 µM (inactive) | GI50 (MDA-MB-435): 7.38 µM (inactive) | GI50 (UACC-62): 14.5 µM (inactive) | GI50 (A549): 18.7 µM (inactive) | GI50 (SK-MEL-28): 2 µM (inactive) | GI50 (UACC-257): 6.32 µM (inactive) | GI50 (RXF 393): 1.77 µM (inactive) | GI50 (SF-268): 18.3 µM (inactive) | GI50 (CAKI-1): 2.05 µM (inactive) | GI50 (SN12C): 16.4 µM (inactive) | GI50 (UO-31): 1.54 µM (inactive) | GI50 (HT-29): 6.3 µM (inactive) | GI50 (IGROV-1): 5.01 µM (inactive) | GI50 (OVCAR-8): 4.49 µM (inactive) | GI50 (NCI-H226): 5.15 µM (inactive) | GI50 (COLO 205): 1.82 µM (inactive) | GI50 (SNB-19): 18.7 µM (inactive) | GI50 (SNB-75): 23.3 µM (inactive) | GI50 (KM12): 23.7 µM (inactive) | GI50 (SW-620): 1.96 µM (inactive) | GI50 (HL-60): 0.0841 µM (active) | GI50 (Hs-578T): 18.2 µM (inactive) | GI50 (NCI-H23): 5.96 µM (inactive) | GI50 (BT-549): 5.47 µM (inactive) | GI50 (CCRF-CEM): 1.69 µM (inactive) | GI50 (TK-10): 5.2 µM (inactive) | GI50 (DU-145): 7.78 µM (inactive) | GI50 (HCT-116): 1.74 µM (inactive) | GI50 (U-251): 17.3 µM (inactive) | GI50 (SR): 1.88 µM (inactive) | GI50 (SF-295): 18.8 µM (inactive) | GI50 (OVCAR-4): 1.78 µM (inactive) | GI50 (NCI-H522): 1.3 µM (inactive) | GI50 (Malme-3M): 2.5 µM (inactive) | GI50 (SF-539): 6.27 µM (inactive) | GI50 (NCI/ADR-RES): 10.8 µM (inactive) | GI50 (SK-MEL-5): 16.9 µM (inactive) | GI50 (MCF7): 8.89 µM (inactive) | GI50 (OVCAR-3): 2.88 µM (inactive) | GI50 (MDA-MB-231): 17.7 µM (inactive) | GI50 (MOLT-4): 1.54 µM (inactive) | GI50 (NCI-H460): 22.2 µM (inactive) | GI50 (MDA-N): 6.62 µM (inactive) | GI50 (HCC 2998): 6.34 µM (inactive) | GI50 (EKVX): 6.07 µM (inactive) | GI50 (A498): 21.1 µM (inactive) | GI50 (ACHN): 1.63 µM (inactive) | GI50 (HOP-92): 1.69 µM (inactive) | GI50 (M14): 2.1 µM (inactive) | GI50 (HCT-15): 2.18 µM | GI50 (LOX IMVI): 15.2 µM (inactive) | GI50 (T47D): 2.61 µM (inactive) | GI50 (786-0): 1.76 µM (inactive)

CCOC(=O)NNC1(SC)NC(=O)c2c(cc(Cl)oc2=O)O1 (configuration not stated)
GI50 (HOP-62): 11.3 µM (inactive) | GI50 (PC-3): 3.4 µM (inactive) | GI50 (SK-MEL-2): 7.73 µM (inactive) | GI50 (RPMI-8226): 2.84 µM (inactive) | GI50 (SK-OV-3): 8.02 µM (inactive) | GI50 (OVCAR-5): 11.5 µM (inactive) | GI50 (MDA-MB-435): 4.83 µM (inactive) | GI50 (UACC-62): 5.97 µM (inactive) | GI50 (A549): 8.11 µM (inactive) | GI50 (SK-MEL-28): 3.08 µM (inactive) | GI50 (UACC-257): 7.26 µM (inactive) | GI50 (RXF 393): 3.14 µM (inactive) | GI50 (SF-268): 3.49 µM (inactive) | GI50 (CAKI-1): 2.72 µM (inactive) | GI50 (SN12C): 3.21 µM (inactive) | GI50 (UO-31): 1.72 µM (inactive) | GI50 (HT-29): 2.19 µM (inactive) | GI50 (IGROV-1): 3.87 µM (inactive) | GI50 (OVCAR-8): 2.07 µM (inactive) | GI50 (NCI-H226): 20.9 µM (inactive) | GI50 (COLO 205): 6.93 µM (inactive) | GI50 (SNB-19): 11.5 µM (inactive) | GI50 (SNB-75): 9.84 µM (inactive) | GI50 (KM12): 10.4 µM (inactive) | GI50 (SW-620): 3.31 µM (inactive) | GI50 (HL-60): 1.9 µM (inactive) | GI50 (Hs-578T): 5.64 µM (inactive) | GI50 (NCI-H23): 3.61 µM (inactive) | GI50 (BT-549): 4.37 µM (inactive) | GI50 (CCRF-CEM): 2.34 µM (inactive) | GI50 (TK-10): 3.55 µM (inactive) | GI50 (DU-145): 4.17 µM (inactive) | GI50 (HCT-116): 1.46 µM (inactive) | GI50 (U-251): 10.8 µM (inactive) | GI50 (SR): 2.36 µM (inactive) | GI50 (SF-295): 12.4 µM (inactive) | GI50 (OVCAR-4): 6.17 µM (inactive) | GI50 (NCI-H522): 2.12 µM (inactive) | GI50 (K562): 1.62 µM (inactive) | GI50 (SF-539): 1.79 µM (inactive) | GI50 (NCI/ADR-RES): 6.84 µM (inactive) | GI50 (SK-MEL-5): 5.16 µM (inactive) | GI50 (MCF7): 1.91 µM (inactive) | GI50 (OVCAR-3): 2.84 µM (inactive) | GI50 (MDA-MB-231): 8.41 µM (inactive) | GI50 (MOLT-4): 2.67 µM (inactive) | GI50 (NCI-H460): 8 µM (inactive) | GI50 (MDA-N): 2.58 µM (inactive) | GI50 (HCC 2998): 4.29 µM (inactive) | GI50 (EKVX): 6.85 µM (inactive) | GI50 (A498): 14.2 µM (inactive) | GI50 (ACHN): 1.87 µM (inactive) | GI50 (HOP-92): 1.96 µM (inactive) | GI50 (M14): 3.37 µM (inactive) | GI50 (HCT-15): 2.17 µM | GI50 (LOX IMVI): 2.06 µM (inactive) | GI50 (T47D): 6.85 µM (inactive) | GI50 (786-0): 1.92 µM (inactive)

CCCCCCCCCCCCCCCCOP(=O)(O)OCC(NC(C)=O)C(=O)O (configuration not stated)
GI50 (HOP-62): 19.2 µM (inactive) | GI50 (PC-3): 18 µM (inactive) | GI50 (SK-MEL-2): > 100 µM (inactive) | GI50 (RPMI-8226): 41.7 µM (inactive) | GI50 (SK-OV-3): > 100 µM (inactive) | GI50 (OVCAR-5): > 100 µM (inactive) | GI50 (MDA-MB-435): 35.4 µM (inactive) | GI50 (A549): > 100 µM (inactive) | GI50 (SK-MEL-28): > 100 µM (inactive) | GI50 (UACC-257): 54.1 µM (inactive) | GI50 (RXF 393): 21.7 µM (inactive) | GI50 (SF-268): 31 µM (inactive) | GI50 (CAKI-1): 57 µM (inactive) | GI50 (SN12C): 42.6 µM (inactive) | GI50 (UO-31): > 100 µM (inactive) | GI50 (HT-29): > 100 µM (inactive) | GI50 (IGROV-1): 24.3 µM (inactive) | GI50 (OVCAR-8): > 100 µM (inactive) | GI50 (NCI-H226): 76 µM (inactive) | GI50 (COLO 205): > 100 µM (inactive) | GI50 (SNB-19): 18.7 µM (inactive) | GI50 (SNB-75): 20 µM (inactive) | GI50 (SW-620): > 100 µM (inactive) | GI50 (HL-60): 43.8 µM (inactive) | GI50 (Hs-578T): 27.9 µM (inactive) | GI50 (NCI-H23): 33 µM (inactive) | GI50 (BT-549): 18.8 µM (inactive) | GI50 (TK-10): 23.7 µM (inactive) | GI50 (DU-145): > 100 µM (inactive) | GI50 (HCT-116): 36.4 µM (inactive) | GI50 (U-251): 20 µM (inactive) | GI50 (SR): 73.8 µM (inactive) | GI50 (SF-295): 20.4 µM (inactive) | GI50 (OVCAR-4): 25.9 µM (inactive) | GI50 (NCI-H522): 5.64 µM (inactive) | GI50 (K562): > 100 µM (inactive) | GI50 (Malme-3M): > 100 µM (inactive) | GI50 (SF-539): 32.4 µM (inactive) | GI50 (NCI/ADR-RES): > 100 µM (inactive) | GI50 (SK-MEL-5): > 100 µM (inactive) | GI50 (MCF7): > 100 µM (inactive) | GI50 (OVCAR-3): 98.2 µM (inactive) | GI50 (MDA-MB-231): 22.9 µM (inactive) | GI50 (MOLT-4): 24.2 µM (inactive) | GI50 (NCI-H460): 39.1 µM (inactive) | GI50 (MDA-N): 54.2 µM (inactive) | GI50 (HCC 2998): > 100 µM (inactive) | GI50 (EKVX): > 100 µM (inactive) | GI50 (A498): 32.4 µM (inactive) | GI50 (ACHN): > 100 µM (inactive) | GI50 (HOP-92): 55.3 µM (inactive) | GI50 (M14): > 100 µM (inactive) | GI50 (HCT-15): 18.2 µM | GI50 (LOX IMVI): > 100 µM (inactive) | GI50 (T47D): > 100 µM (inactive) | GI50 (786-0): 73.3 µM (inactive)
